The results in this text go back to patent publication US12509437B2, “Substituted thiophene carboxamides and derivatives thereof as microbicides” (Bayer Aktiengesellschaft, priority 2019, dated 2025).

The inhibition is the change of the read-out against control, counted positive when it falls. In general, chromatographic logP refers to lipophilicity estimated from chromatographic retention. Low values mean lower lipophilicity, high ones higher lipophilicity.

Data set [1] concerns Pseudomonas syringae pv. tomato. As to the kind of experiment: Pseudomonas syringae pv. tomato in vitro cell test. It is filed as cell-based. As to conditions: 20 ppm of active ingredient, 24 h of incubation, read-out: efficacy (inhibition of bacteria growth; no direct activity). The protocol:
(§1) • Solvent: DMSO • Culture medium: LB broth medium (Luria Broth Miller) Sigma • Inoculum: bacteria suspension Compounds were solubilized in DMSO and the solution used to prepare the required range of concentrations. The final concentration of DMSO used in the assay was ≤1%. Inoculum was prepared from a pre-culture of bacteria grown in liquid medium and diluted to the desired optical density (OD). Compounds were evaluated for their ability to inhibit bacteria growth in liquid culture assay. The compounds were added in the desired concentrations to culture medium containing the bacteria suspension. After 24 h of incubation, the efficacy of compounds was determined by spectrometric measurement of bacteria growth. Inhibition was determined by comparing the absorbance values in wells containing the compounds with the absorbance in control wells without active ingredients.

The nature of data set [2]: LogP by HPLC on reversed phase columns (EEC directive 79/831 Annex V.A8). It is filed as physicochemical. The settings on record: reversed phase HPLC columns; method [a]. In short, it runs like this:
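Reversed-phase HPLC, calibrated with straight-chain alkan-2-ones (C3–C16) of known LogP; values by linear interpolation of retention times between successive alkanones. Multiple values from one method are joined by "+"; lambda-max taken from 200–400 nm UV spectra at chromatographic peaks.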

In data set [3] the test system is salicylate responsive promoter sequence of the PR1 (pathogenesis-related protein I) gene (AT2G14610). Put plainly: Induction of defense gene expression in Arabidopsis thaliana (PR1 promoter-GFP reporter plants). Type of data set: in vivo. As to conditions: 72 h, 3rd day after spraying, mock treated leaves set as 1.00, read-out: relative fluorescence value. The method, boiled down: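 Transgenic A. thaliana carrying GFP under the salicylate-responsive PR1 promoter, grown five days, then sprayed with compounds. Whole-plant fluorescence imaged and quantified on day 3 post-spray, expressed relative to mock-treated leaf background set at 1.00.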

For data set [4], the system named is Colletotrichum lindemuthianum. Put plainly: Colletotrichum lindemuthianum in vitro cell test. It is filed as cell-based. The settings on record: 144 h, 6 days incubation, read-out: efficacy (inhibition of fungal growth; no direct activity); for inhibition at 5 ppm: 5 ppm of active ingredient; for inhibition at 20 ppm: 20 ppm of active ingredient. The protocol: (§2) • Solvent: DMSO • Culture medium: 14.6 g anhydrous D-glucose (VWR), 7.1 g Mycological Peptone (Oxoid), 1.4 g granulated Yeast Extract (Merck), QSP 1 liter • Inoculum: spores suspension Fungicides were solubilized in DMSO and the solution used to prepare the required range of concentrations. The final concentration of DMSO used in the assay was ≤[…]1%. A spore suspension of C. lindemuthianum was prepared and diluted to the desired spore density. Fungicides were evaluated for their ability to inhibit spores germination and mycelium growth in liquid culture assay. The compounds were added in the desired concentration to the culture medium with spores. After 6 days incubation, fungi-toxicity of compounds was determined by spectrometric measurement of mycelium growth. Inhibition of fungal growth was determined by comparing the absorbance values in wells containing the fungicides with the absorbance in control wells without fungicides.

The next data set relates to Uromyces appendiculatus. As to the kind of experiment: In vivo preventive test on Uromyces appendiculatus (bean rust). The settings on record: 240 h, sprayed 72 hours before inoculation, evaluated 10 days after inoculation, read-out: efficacy; for pest or weed control at 500 ppm: 500 ppm of active ingredient; for pest or weed control at 125 ppm: 125 ppm of active ingredient; for pest or weed control at 31 ppm: 31 ppm of active ingredient. The method, boiled down:
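Young bean plants sprayed with compound in acetone/DMSO/Tween diluted in water, then inoculated 72 h later with spore suspension. Incubated 24 h at 20° C., 100% RH, then 9 days at 20° C., 70-80% RH. Efficacy scored 10 days post-inoculation, 0% = untreated-control level, 100% = no disease.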

Data set [5] relates to Xanthomonas campestris pv. campestris. As to the kind of experiment: Xanthomonas campestris pv. campestris in vitro cell test. Type of data set: cell-based. The settings on record: 24 h of incubation, read-out: efficacy (inhibition of bacteria growth; no direct activity); for inhibition at 5 ppm: 5 ppm of active ingredient; for inhibition at 20 ppm: 20 ppm of active ingredient. As to the method:
as §1

A further data set relates to Peronospora parasitica. As to the kind of experiment: In vivo preventive test on Peronospora parasitica (Crucifer downy mildew) on cabbage. The settings on record: Hyaloperonospora parasitica, 120 h, sprayed 72 hours before inoculation, evaluated 5 days after inoculation, read-out: efficacy; for pest or weed control at 31 ppm: 31 ppm of active ingredient; for pest or weed control at 125 ppm: 125 ppm of active ingredient; for pest or weed control at 500 ppm: 500 ppm of active ingredient. The method, boiled down:
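Young cabbage plants were sprayed with compound in aqueous acetone/DMSO/Tween, then inoculated 72 h later with P. parasitica spores and held 5 days at 20 °C, 100% RH. Efficacy scored 5 days post-inoculation: 0% equals solvent-treated controls, 100% means no disease.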

Data set [6] has as its system Xanthomonas campestris pv. campestris. Put plainly: In vivo preventive test on Xanthomonas campestris pv. campestris (black rot on cabbage). The settings on record: Xanthomonas campestris, sprayed 72 hours before inoculation, evaluated 8 or 10 days after inoculation, read-out: efficacy; for pest or weed control at 31 ppm: 31 ppm of active ingredient; for pest or weed control at 125 ppm: 125 ppm of active ingredient. The method, boiled down:
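Young cabbage plants sprayed preventively with compound formulated in acetone/DMSO/Tween and diluted in water, then inoculated 72 h later with a bacterial spray. Kept at 27° C, 95% relative humidity; disease scored after 8 or 10 days as % efficacy versus solvent-treated controls (0% = control, 100% = no disease).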

A further data set deals with Alternaria alternata. As to the kind of experiment: Alternaria alternata in vitro cell test. Type of data set: cell-based. As to conditions: 120 h, 5 days incubation, read-out: efficacy (inhibition of fungal growth; no direct activity); for inhibition at 5 ppm: 5 ppm of active ingredient; for inhibition at 20 ppm: 20 ppm of active ingredient. As to the method:
as §2, with “of A. alternata” for “of C. lindemuthianum”, “inhibit spore” for “inhibit spores”, “After 5” for “After 6”

On to `Cc1c(C(=O)NC(Cc2c[nH]c3ccccc23)C(=O)O)sc(Cl)c1Cl` (stereo not shown) [I.070], for which the inhibition at 20 ppm (in data set [1]; in [4]; in [5]; with Alternaria alternata) was not above 30% throughout. Besides, the chromatographic logP in [2] was 3.12. The fold induction at 300 ppm in data set [3] was more than 2. Further, the inhibition at 5 ppm (in [4]; in data set [5]; with Alternaria alternata) was not above 30% each time. Besides, the pest or weed control at 500 ppm in the data set on Uromyces appendiculatus and in the data set on Peronospora parasitica was 90 to 100% each time. Also, the pest or weed control at 31 ppm (in the data set on Peronospora parasitica; in data set [6]) was 70 to 79% in each case. The pest or weed control at 125 ppm in the data set on Peronospora parasitica fell in the range of 90 to 100%; in [6] it was 80 to 89%.
In the case of `Cc1c(C(=O)NC(CC(N)=O)C(=O)O)sc(Br)c1Br` (stereo not shown) [I.076], the inhibition at 20 ppm (in [1]; in data set [4]; in data set [5]; in the data set with Alternaria alternata) was not above 30% each time. In [2], the chromatographic logP was found to be 1.73. Also, the fold induction at 300 ppm in [3] was more than 2. The inhibition at 5 ppm (in data set [4]; in data set [5]; with Alternaria alternata) was not above 30% in each case. Besides, the results for the pest or weed control at 125 ppm with Uromyces appendiculatus and in the data set on Peronospora parasitica were 80 to 89% and 90 to 100%, respectively. The pest or weed control at 500 ppm with Uromyces appendiculatus and in the data set on Peronospora parasitica was 90 to 100% throughout. Also, the pest or weed control at 31 ppm in data set [6] is 70 to 79%.
On to `CCOC(=O)C(NC(=O)c1sc(Cl)c(Cl)c1C)C(F)(F)F` (stereo not shown) [I.164], for which the inhibition at 20 ppm (in data set [1]; in data set [4]; in data set [5]; with Alternaria alternata) was not above 30% throughout. In data set [2], this compound showed a chromatographic logP of 4.07. The fold induction at 75 ppm in data set [3] was more than 2. For the same compound, in data set [3], the fold induction at 300 ppm was more than 2. For the same compound, the inhibition at 5 ppm (in data set [4]; in data set [5]; in the data set with Alternaria alternata) was not above 30% throughout. In addition, the figures for the pest or weed control at 31 ppm (in the data set on Uromyces appendiculatus; in the data set with Peronospora parasitica; in [6]) were 90 to 100%, 90 to 100% and 80 to 89%, respectively. Besides, the pest or weed control at 125 ppm with Uromyces appendiculatus and in the data set with Peronospora parasitica was 90 to 100% each time. Moreover, the pest or weed control at 500 ppm with Peronospora parasitica is not below 90%.
With `COC(=O)C1(NC(=O)c2sc(Cl)c(Cl)c2C)CCC1` [I.171], the inhibition at 20 ppm (in [1]; in data set [5]; with Alternaria alternata) was not above 30% in each case. The chromatographic logP in data set [2] turned out to be 3.5. Further, in data set [3], the fold induction at 75 ppm was more than 2. In data set [3], the fold induction at 300 ppm is more than 2. In addition, the inhibition at 5 ppm (in [4]; in [5]; in the data set with Alternaria alternata) was not above 30% each time. Also, the pest or weed control at 31 ppm lay within 80 to 89% with Uromyces appendiculatus and 90 to 100% in the data set with Peronospora parasitica. Further, the pest or weed control at 125 ppm with Uromyces appendiculatus was 90 to 100%; with Peronospora parasitica it was 90 to 100%; in data set [6] it was 70 to 79%.
For the compound `Cc1c(C(=O)NC(C)(C)C(=O)O)sc(Cl)c1Cl` [I.174], the inhibition at 20 ppm (in [1]; in data set [4]; in [5]; in the data set with Alternaria alternata) was not above 30% throughout. The chromatographic logP in [2] was 2.43. Also, in [3], the fold induction at 75 ppm was more than 2. For the same compound, the fold induction at 300 ppm in data set [3] was more than 2. For the same compound, the inhibition at 5 ppm (in data set [4]; in [5]; in the data set on Alternaria alternata) was not above 30% throughout. Besides, in the data set on Uromyces appendiculatus, the pest or weed control at 31 ppm lay in the range of 90 to 100%. In addition, the pest or weed control at 125 ppm with Uromyces appendiculatus fell in the range of 90 to 100%; in the data set on Peronospora parasitica it was 90 to 100%; in data set [6], 70 to 79%.
